For experiment [1], the species on record is Oryctolagus cuniculus. The experiment can be described thus: Inhibition of chymotrypsin-like (CT-L) activity of rabbit 20S proteasome. It counts as functional.
The species named for experiment [2] is Oryctolagus cuniculus. The experiment can be described thus: Inhibition of trypsin-like (T-L) activity of rabbit 20S proteasome. The experiment is classed as functional.
In the next experiment the test system is HEK293. The experiment can be described thus: Inhibition of NF-kB activation in HEK293 cells. The experiment is classed as functional, cell-based. Conditions: Homo sapiens.
In another experiment the test system is RPMI-8226. The experiment can be described thus: Cytotoxic activity against RPMI 8226 cells. The experiment is classed as functional, cell-based. Conditions: Homo sapiens.
For experiment [3], the species on record is Oryctolagus cuniculus. The experiment can be described thus: Inhibition of caspase-like (CA-L) activity of rabbit 20S proteasome. It counts as functional.

The structures appear in SMILES notation. Bounds are passed on as bounds.

As for `CC[C@@]12OC(=O)[C@]1([C@@H](O)[C@@H]1C=CCCC1)NC(=O)[C@@H]2CCCl`, the IC50 – broadly, the midpoint of a concentration-inhibition curve – in the experiment filed under Oryctolagus cuniculus [1] is 2100 nM; in the experiment listed under Oryctolagus cuniculus [2], 3300 nM; with HEK293, 3600 nM; in the experiment on RPMI-8226 it was 1900 nM; in the experiment listed under Oryctolagus cuniculus [3], more than 20000 nM.

Turning to `C[C@@]12OC(=O)[C@]1([C@@H](O)[C@@H]1C=CCCC1)NC(=O)[C@@H]2CCN=[N+]=[N-]`, the IC50 in the experiment listed under Oryctolagus cuniculus [1] is 7.7 nM; in the experiment listed under Oryctolagus cuniculus [2] it was 210 nM; in the experiment on HEK293, 1000 nM; with RPMI-8226, 5500 nM; in the experiment listed under Oryctolagus cuniculus [3], 560 nM.

Consider `CCC[C@H]1C(=O)N[C@@]2([C@@H](O)[C@@H]3C=CCCC3)C(=O)O[C@@]12C`, for which the IC50 in the experiment filed under Oryctolagus cuniculus [1] is 24 nM; in the experiment listed under Oryctolagus cuniculus [2] it was 1100 nM; with HEK293, 1900 nM; in the experiment on RPMI-8226 it was 6300 nM; in the experiment listed under Oryctolagus cuniculus [3] it was 1200 nM.

Consider `C[C@@]12OC(=O)[C@]1([C@@H](O)C1CCCCC1)NC(=O)[C@@H]2CCCl`, for which the IC50 amounted to 20 nM in the experiment listed under Oryctolagus cuniculus [1]; 250 nM in the experiment filed under Oryctolagus cuniculus [2]; 71 nM with HEK293; 52 nM in the experiment with RPMI-8226; 1400 nM in the experiment filed under Oryctolagus cuniculus [3].

Regarding `C[C@@]12OC(=O)[C@]1([C@@H](O)[C@H]1CCC[C@H](Cl)[C@H]1O)NC(=O)[C@@H]2CCCl`, the 50% inhibitory concentration (IC50) was 8200 nM in the experiment filed under Oryctolagus cuniculus [1]; more than 20000 nM in the experiment filed under Oryctolagus cuniculus [2]; more than 20000 nM with HEK293; more than 20000 nM with RPMI-8226; more than 20000 nM in the experiment listed under Oryctolagus cuniculus [3].

As to `C[C@@]12OC(=O)[C@]1(C(=O)[C@@H]1C=CCCC1)NC(=O)[C@@H]2CCCl`, the IC50 in the experiment listed under Oryctolagus cuniculus [1] is 8200 nM; in the experiment listed under Oryctolagus cuniculus [2] it was 10000 nM; in the experiment with HEK293 it was more than 20000 nM; with RPMI-8226, more than 20000 nM; in the experiment filed under Oryctolagus cuniculus [3] it was more than 20000 nM.

With `C[C@@]12OC(=O)[C@]1([C@@H](O)[C@H]1CCC[C@H]3O[C@@H]13)NC(=O)[C@@H]2CCCl`, the IC50 in the experiment listed under Oryctolagus cuniculus [1] was found to be 6.3 nM; in the experiment listed under Oryctolagus cuniculus [2], 92 nM; in the experiment on HEK293 it was 34 nM; in the experiment with RPMI-8226, 32 nM; in the experiment filed under Oryctolagus cuniculus [3] it was 570 nM.

For the molecule `C[C@@]12OC(=O)[C@]1(C(O)[C@@H]1C=CCCC1)NC(=O)[C@@H]2CCCl` (some centres not stated), the IC50 in the experiment filed under Oryctolagus cuniculus [1], in the experiment filed under Oryctolagus cuniculus [2], in the experiment with HEK293, with RPMI-8226 and in the experiment filed under Oryctolagus cuniculus [3] was more than 20000 nM each time.

With `C[C@H]1C(=O)N[C@@]2([C@@H](O)[C@@H]3C=CCCC3)C(=O)O[C@@]12C`, the half-maximal inhibitory concentration (IC50) in the experiment listed under Oryctolagus cuniculus [1] was found to be 7.7 nM; in the experiment filed under Oryctolagus cuniculus [2], 340 nM; in the experiment on HEK293, 850 nM; with RPMI-8226, 8500 nM; in the experiment filed under Oryctolagus cuniculus [3], 1200 nM.

Consider `C[C@@]12OC(=O)[C@]1([C@@H](O)[C@@H]1C=CCCC1)NC(=O)C2CCCl` (single isomer, unassigned), for which the IC50 in the experiment listed under Oryctolagus cuniculus [1] is 330 nM; in the experiment filed under Oryctolagus cuniculus [2], 2500 nM; with HEK293, 3800 nM; in the experiment with RPMI-8226, 1900 nM; in the experiment filed under Oryctolagus cuniculus [3] it was more than 20000 nM.

For the molecule `C[C@@]12OC(=O)[C@]1(C(O)[C@H]1CCC[C@@H]3OC13)NC(=O)[C@@H]2CCCl` (single isomer, unassigned), the IC50 in the experiment listed under Oryctolagus cuniculus [1] was determined as 91 nM; in the experiment listed under Oryctolagus cuniculus [2], 770 nM; in the experiment with HEK293, 300 nM; in the experiment with RPMI-8226 it was 320 nM; in the experiment listed under Oryctolagus cuniculus [3] it was 3200 nM.

Take `C[C@@]12OC(=O)C1([C@@H](O)[C@@H]1C=CCCC1)NC(=O)[C@@H]2CCO` (single isomer, unassigned) [hydroxysalinosporamide A]: the IC50 is 8 nM in the experiment filed under Oryctolagus cuniculus [1]; 800 nM in the experiment filed under Oryctolagus cuniculus [2]; 2600 nM in the experiment with HEK293; more than 20000 nM in the experiment on RPMI-8226; 2500 nM in the experiment filed under Oryctolagus cuniculus [3].

For `C[C@@]12OC(=O)[C@]1([C@@H](O)[C@@H]1C=CCCC1)NC(=O)[C@@H]2CCBr` [BROMOSALINOSPORAMIDE], the concentration for half-maximal inhibition (IC50) in the experiment filed under Oryctolagus cuniculus [1] came out at 2.6 nM; in the experiment filed under Oryctolagus cuniculus [2] it was 14 nM; in the experiment on HEK293, 14 nM; in the experiment on RPMI-8226, 7.4 nM; in the experiment listed under Oryctolagus cuniculus [3], 290 nM.

On to `C[C@@]12OC(=O)[C@]1([C@@H](O)[C@@H]1C=CCCC1)NC(=O)[C@@H]2CCI` [IODOSALINOSPORAMIDE], for which the IC50 in the experiment listed under Oryctolagus cuniculus [1] worked out at 2.8 nM; in the experiment filed under Oryctolagus cuniculus [2] it was 13 nM; with HEK293 it was 10 nM; in the experiment with RPMI-8226 it was 6.8 nM; in the experiment listed under Oryctolagus cuniculus [3], 410 nM.

As to `C[C@@]12OC(=O)[C@]1([C@@H](O)[C@@H]1C=CCCC1)NC(=O)[C@@H]2CCCl` [MARIZOMIB], the IC50 came to 2.6 nM in the experiment filed under Oryctolagus cuniculus [1], 11 nM in the experiment on HEK293, 8.2 nM in the experiment with RPMI-8226 and 430 nM in the experiment filed under Oryctolagus cuniculus [3].

Consider `CC(C)[C@H](O)[C@@]12NC(=O)[C@H](C)[C@@H]1OC2=O` [OMURALIDE], for which the IC50 in the experiment filed under Oryctolagus cuniculus [1] is 57 nM; in the experiment listed under Oryctolagus cuniculus [2] it was 540 nM; with HEK293 it was 1600 nM; with RPMI-8226, 3300 nM; in the experiment filed under Oryctolagus cuniculus [3] it was more than 10000 nM.

Regarding `CC[C@H]1C(=O)N[C@@]2([C@@H](O)[C@@H]3C=CCCC3)C(=O)O[C@@]12C` [SALINOSPORAMIDE B], the IC50 in the experiment filed under Oryctolagus cuniculus [1] is 27 nM; in the experiment listed under Oryctolagus cuniculus [2], 640 nM; in the experiment on HEK293 it was 1600 nM.

Values taken from ChEMBL document CHEMBL1141932 (J Med Chem, 2005).
